The source of these data is US20250099383A1, “COMPOSITIONS AND METHODS FOR DELIVERY OF NUCLEIC ACIDS” (Poseida Therapeutics, Inc., priority 2022, published 2025).

Data set [1] deals with liver cells. As to the kind of experiment: In vivo LNP delivery of firefly luciferase mRNA to liver, bioluminescent imaging (BLI). Further details: species or system BALB/C mice. As to conditions: 0.5 mg/kg fLuciferase mRNA i.v., BLI at 4 hr; for Mean Liver Luciferase Flux (p/s): LNP compositions of Table 25, adult female BALB/C, n=3; for Ave flux (p/s) n = 3: adult female BALB/C mice, LNP as in Example 66. The procedure:
Adult female BALB/C mice (n=3/group) were intravenously administered 0.5 mg/kg of 5′-CleanCap-fLuciferase mRNA (TriLink Biotech) formulated with LNP compositions as described in Example 66. One group of mice was treated with vehicle (PBS, Thermo Fisher Scientific, USA) as a negative control.
(§1) The location and extent of luciferase expression in treated and control mice were determined at 4 hr by bioluminescent imaging (BLI) of anesthetized mice using an IVIS Lumina in vivo imaging system (Perkin Elmer) according to the manufacturer's instructions. Briefly, mice were anesthetized using isoflurane in oxygen, and placed supine on a heated stage. Mice were then administered D-luciferin (Perkin-Elmer #122799) IP, and BLI was performed.
Adult female BALB/C mice (n=3/group) were intravenously administered 0.5 mg/kg of 5′-CleanCap-fLuciferase mRNA (TriLink Biotech) formulated with the LNP compositions shown in Table 25. One group of mice was treated with vehicle (PBS, Thermo Fisher Scientific, USA) as a negative control. […]

Data set [2] can be described thus: Body weight change of mice after LNP administration. In kind it is in vivo, BALB/C mice. The note with it: for Ave weight change (gram) n = 3: 24 hrs after 0.5 mg/kg LNP encapsulating firefly luciferase mRNA, adult female BALB/C mice; for % Body Weight Change 24 hr: LNP compositions of Table 25, 0.5 mg/kg fLuciferase mRNA i.v., 24 hr post-administration vs baseline. The procedure: The mice above were also monitored for changes in body weight after LNP delivery. Mice were manually weighed on a scale before LNP dosage and then weighed 24 hrs after administration of 0.5 mg/kg of LNP article encapsulating Cleancap firefly luciferase mRNA. The average of weight change n=3 is reported below.
In addition, the body weight of mice treated with the LNP compositions of Table 25 was assessed prior to intravenous administration and twenty-four hours post-administration and the body weights at baseline and post-treatment were compared. The average percentage of body weight change for each group of mice treated with each LNP composition of Table 25 is shown in Table 28. […]

The nature of data set [3]: Physical characteristics of LNPs (particle size, PDI). In kind it is physicochemical. The note with it: for PDI DNA / Particle Size (nm) DNA: LNP with Fluc DNA, compound/DOPE/Cholesterol/DMG-PEG2000 38/50/10.0/2.0, Lipid:DNA 45:1 (w/w); for PDI RNA / Particle Size (nm) RNA: LNP with Fluc mRNA, compound/DOPE/Cholesterol/DMG-PEG2000 41.44/45.85/10/2.7, Lipid:RNA 40:1 (w/w). As for the experimental part: LNP compositions of the present disclosure comprising exemplary compounds of Formula (I) were prepared by combining various percentages of an exemplary compound of Formula (I), the phospholipid DOPE, the structural lipid cholesterol (Chol) and 1,2-dimyristoyl-sn-glycerol methoxypolyethylene glycol (DMG-PEG2000; Avanti Polar Lipids, Alabaster, Alabama, USA).
Individual 25 mg/ml stock solutions were prepared by solubilizing the lipids in 200-proof HPLC-grade ethanol and stock solutions were stored at −80° C. until formulated. At the time of formulation, the lipid stock solutions were briefly allowed to equilibrate to room temp and then placed on a hot plate maintained at a temperature range of 50-55° C.
A 1 mg/ml solution of the desired mRNA or DNA to be incorporated into the LNPs was added to 150 mM sodium acetate buffer (pH 5.2) to form a stock solution and kept on ice. The aqueous mRNA or DNA was then added to the lipids as shown in Table 4 or 5 and hand-mixed vigorously with a single channel pipettor.
The resultant mRNA or DNA LNP compositions were then transferred to a Repligen Float-A-Lyzer dialysis device-having a molecular weight cut off (MWCO) of 8-10 kDa (Spectrum Chemical Mfg. Corp, CA, USA) and processed by dialysis against phosphate buffered saline (PBS) (dialysate: dialysis buffer volume at least 1:200 v/v), pH 7.4 overnight at 4° C. (or alternatively room temperature for at least 4 hours), to remove the 25% ethanol and achieve a complete buffer exchange. In some experiments the LNPs were further concentrated by in an Amicon® Ultra-4 centrifugal filter unit, MWCO-30 kDa (Millipore Sigma, USA) spun at ˜4100 x g in an ultracentrifuge. The mRNA and DNA LNPs were then stored at 4° C. until further use.
LNP compositions of the present disclosure comprising mRNA or DNA encoding firefly luciferase (hereafter “Fluc”; TriLink) and COMPOUNDS 5-49 were prepared as described in Example 61 by combining one of COMPOUNDS 5-49, the phospholipid DOPE, the structural lipid cholesterol (Chol) and 1,2-dimyristoyl-sn-glycerol methoxypolyethylene glycol (DMG-PEG2000) in the percentages presented in Tables 6 and 7:
The physical characteristics of the resulting LNPs were analyzed.
A 1 mg/ml solution of the 5′-CleanCap--fLuciferase mRNA (TriLink Biotech) to be incorporated into the LNPs was added to 150 mM sodium acetate buffer (pH 5.2) to form a stock solution and kept on ice. The lipid phase was mixed with the aqueous mRNA phase inside a microfluidic chip using a NanoAssemblr® instrument (Precision Nanosystems, Vancouver, BC, Canada) according to the manufacturer's instructions to form LNP compositions comprising encapsulated mRNAs.
The average particle size diameter of the LNPs was approximately 75-150 nm.

Data set [4] concerns liver cells. As to the kind of experiment: In vivo LNP delivery of nanoplasmid CMV-firefly luciferase DNA to liver of juvenile mice, BLI. The note with it: juvenile female BALB/C mice age 14 days; 0.25 mg/kg nanoplasmid CMV-firefly luciferase retroorbital i.v.; BLI at 4 hr. The procedure: Juvenile female BALB/C mice of age 14 days (n=4/group) were retroorbitally intravenously administered 0.25 mg/kg of nanoplasmid CMV-firefly luciferase (Nature Technology Corp) formulated with LNP compositions as described in Example 66. One group of mice was treated with vehicle (PBS, Thermo Fisher Scientific, USA) as a negative control.
as §1

For the compound `CC(C)=CCC/C(C)=C/CCC1=CCC(C(=O)OCCOC(=O)CCN(CCCN2CCN(CCCN(CCC(=O)OCCOC(=O)C3CC=C(CC/C=C(\C)CCC=C(C)C)CC3)CCC(=O)OCCOC(=O)C3CC=C(CC/C=C(\C)CCC=C(C)C)CC3)CC2)CCC(=O)OCCOC(=O)C2CC=C(CC/C=C(\C)CCC=C(C)C)CC2)CC1` (centres unmarked) [Compound 9, ((3,3′,3″,3′″-((piperazine-1,4-diylbis(propane-3,1-diyl))bis(azanetriyl))tetrakis(propanoyl))tetrakis(oxy))tetrakis(ethane-2,1-diyl)tetrakis(4-((E)-4,8-dimethylnona-3,7-dien-1-yl)cyclohex-3-enecarboxylate)], in the data set on liver cells [1], the “Mean Liver Luciferase Flux (p/s)” value was 4.62e10 p/s and the “Ave flux (p/s) n = 3” value was 1.77E+10 p/s. Also, in data set [2], the “Ave weight change (gram) n = 3” value is recorded as −3.03 gram and the “% Body Weight Change 24 hr” value is “+1.4%”. In data set [3], the “PDI DNA” value was 0.123, the “Particle Size (nm) DNA” value is reported as 330.9 nm, the “PDI RNA” value came to 0.129 and the “Particle Size (nm) RNA” value is on record as 314.0 nm.
On to `CC(C)=CCCC1=CCC(C(=O)OCCOC(=O)CCN(CCCN(C)C)CCC(=O)OCCOC(=O)C2CC=C(CCC=C(C)C)CC2)CC1` (centres unmarked) [Compound 19, ((3,3′-((3-(dimethylamino)propyl)azanediyl)bis(propanoyl))bis(oxy))bis(ethane-2,1-diyl)bis(4-(4-methylpent-3-en-1-yl)cyclohex-3-enecarboxylate)], for which the “Ave flux (p/s) n = 3” value with liver cells [1] worked out at 1.10E+06 p/s. Besides, the “Ave weight change (gram) n = 3” value in data set [2] is given as 0.70 gram. For the same compound, in data set [3], the “PDI DNA” value is reported as 0.131, the “Particle Size (nm) DNA” value was determined as 213.9 nm, the “PDI RNA” value turned out to be 0.133 and the “Particle Size (nm) RNA” value is 220.1 nm.
Consider `CC(C)=CCCC1=CCC(C(=O)OCCOC(=O)CCN(CCCN2CCN(CCCN(CCC(=O)OCCOC(=O)C3CC=C(CCC=C(C)C)CC3)CCC(=O)OCCOC(=O)C3CC=C(CCC=C(C)C)CC3)CC2)CCC(=O)OCCOC(=O)C2CC=C(CCC=C(C)C)CC2)CC1` (centres unmarked) [Compound 22], for which, in the data set with liver cells [1], the “Mean Liver Luciferase Flux (p/s)” value amounted to 1.84e10 p/s and the “Ave flux (p/s) n = 3” value is 9.27E+09 p/s. Also, in data set [2], the “Ave weight change (gram) n = 3” value is given as −6.40 gram and the “% Body Weight Change 24 hr” value was “+1.2%”. Moreover, in data set [3], the “PDI DNA” value is 0.141, the “Particle Size (nm) DNA” value stood at 255.5 nm, the “PDI RNA” value was determined as 0.176 and the “Particle Size (nm) RNA” value was 330.9 nm.
`CC(C)=CCC/C(C)=C/CCC1=CCC(C(=O)OCCOC(=O)CCN(CCC(=O)OCCOC(=O)C2CC=C(CC/C=C(\C)CCC=C(C)C)CC2)CC(C)N(CCC(=O)OCCOC(=O)C2CC=C(CC/C=C(\C)CCC=C(C)C)CC2)CCC(=O)OCCOC(=O)C2CC=C(CC/C=C(\C)CCC=C(C)C)CC2)CC1` (centres unmarked) [Compound 8]: the “Ave flux (p/s) n = 3” value in the data set with liver cells [1] is given as 1.10E+07 p/s. Also, the “Ave weight change (gram) n = 3” value in data set [2] is recorded as −2.53 gram. In data set [3], the “PDI DNA” value came to 0.167, the “Particle Size (nm) DNA” value is recorded as 319.6 nm, the “PDI RNA” value was 0.073 and the “Particle Size (nm) RNA” value was determined as 312.8 nm.
For the compound `CC(C)CCCC1CCC(C(=O)OCCOC(=O)CCN(CCC(=O)OCCOC(=O)C2CCC(CCCC(C)C)CC2)CCN(CCN(CCC(=O)OCCOC(=O)C2CCC(CCCC(C)C)CC2)CCC(=O)OCCOC(=O)C2CCC(CCCC(C)C)CC2)CCN(CCC(=O)OCCOC(=O)C2CCC(CCCC(C)C)CC2)CCC(=O)OCCOC(=O)C2CCC(CCCC(C)C)CC2)CC1` (centres unmarked) [Compound 31], the “Ave flux (p/s) n = 3” value in the data set on liver cells [1] came out at 2.24E+09 p/s. The “Ave weight change (gram) n = 3” value in data set [2] was −4.10 gram. In data set [3], the “PDI DNA” value worked out at 0.063, the “Particle Size (nm) DNA” value amounted to 267.9 nm, the “PDI RNA” value is given as 0.145 and the “Particle Size (nm) RNA” value is 339.9 nm.
For `CC(C)=CCCC1=CCC(C(=O)OCCOC(=O)CCN(CCCN(C)CCCN(CCC(=O)OCCOC(=O)C2CC=C(CCC=C(C)C)CC2)CCC(=O)OCCOC(=O)C2CC=C(CCC=C(C)C)CC2)CCC(=O)OCCOC(=O)C2CC=C(CCC=C(C)C)CC2)CC1` (centres unmarked) [Compound 23], in the data set with liver cells [4], the “Ave flux (p/s) n = 4” value amounted to 3012500000 p/s. For the same compound, in the data set with liver cells [1], the “Ave flux (p/s) n = 3” value stood at 6.24E+09 p/s. In data set [2], the “Ave weight change (gram) n = 3” value was −5.97 gram. In data set [3], the “PDI DNA” value worked out at 0.189, the “Particle Size (nm) DNA” value was determined as 332.8 nm, the “PDI RNA” value was 0.184 and the “Particle Size (nm) RNA” value is given as 434.4 nm.
Take `CC(C)CCCC1CCC(C(=O)OCCOC(=O)CCN(CCCN2CCN(CCCN(CCC(=O)OCCOC(=O)C3CCC(CCCC(C)C)CC3)CCC(=O)OCCOC(=O)C3CCC(CCCC(C)C)CC3)CC2)CCC(=O)OCCOC(=O)C2CCC(CCCC(C)C)CC2)CC1` (centres unmarked) [Compound 29]: the “Ave flux (p/s) n = 4” value in the data set on liver cells [4] is 9120000000 p/s. In the data set on liver cells [1], the “Mean Liver Luciferase Flux (p/s)” value was found to be 3.02e10 p/s and the “Ave flux (p/s) n = 3” value was determined as 2.44E+10 p/s. For the same compound, in data set [2], the “Ave weight change (gram) n = 3” value is listed as −6.07 gram and the “% Body Weight Change 24 hr” value was −2.4%. Besides, in data set [3], the “PDI DNA” value is 0.081, the “Particle Size (nm) DNA” value stood at 317.2 nm, the “PDI RNA” value worked out at 0.197 and the “Particle Size (nm) RNA” value was found to be 422.3 nm.
For `CC(C)CCCC(C)CCCC1CCC(C(=O)OCCOC(=O)CCN(CCCN(C)CCCN(CCC(=O)OCCOC(=O)C2CCC(CCCC(C)CCCC(C)C)CC2)CCC(=O)OCCOC(=O)C2CCC(CCCC(C)CCCC(C)C)CC2)CCC(=O)OCCOC(=O)C2CCC(CCCC(C)CCCC(C)C)CC2)CC1` (centres unmarked) [Compound 17], the “Ave flux (p/s) n = 3” value in the data set with liver cells [1] is given as 2.96E+10 p/s. The “Ave weight change (gram) n = 3” value in data set [2] was −3.10 gram. For the same compound, in data set [3], the “PDI DNA” value is listed as 0.129, the “Particle Size (nm) DNA” value came out at 287.7 nm, the “PDI RNA” value worked out at 0.145 and the “Particle Size (nm) RNA” value is given as 293.3 nm.
